Consider 41 compounds from US20260297109A1, “COMPOUNDS AS SUMO ACTIVATING ENZYME INHIBITORS” (WIGEN BIOMEDICINE TECHNOLOGY (SHANGHAI) CO., LTD., priority 2022, published 2026).

The target in the assay is T1, SAE (Homo sapiens, UniProt Q9UBT2).
T1 construct: endogenous in cells; host or cells: HCT116
T1 sequence (Q9UBT2 1-640): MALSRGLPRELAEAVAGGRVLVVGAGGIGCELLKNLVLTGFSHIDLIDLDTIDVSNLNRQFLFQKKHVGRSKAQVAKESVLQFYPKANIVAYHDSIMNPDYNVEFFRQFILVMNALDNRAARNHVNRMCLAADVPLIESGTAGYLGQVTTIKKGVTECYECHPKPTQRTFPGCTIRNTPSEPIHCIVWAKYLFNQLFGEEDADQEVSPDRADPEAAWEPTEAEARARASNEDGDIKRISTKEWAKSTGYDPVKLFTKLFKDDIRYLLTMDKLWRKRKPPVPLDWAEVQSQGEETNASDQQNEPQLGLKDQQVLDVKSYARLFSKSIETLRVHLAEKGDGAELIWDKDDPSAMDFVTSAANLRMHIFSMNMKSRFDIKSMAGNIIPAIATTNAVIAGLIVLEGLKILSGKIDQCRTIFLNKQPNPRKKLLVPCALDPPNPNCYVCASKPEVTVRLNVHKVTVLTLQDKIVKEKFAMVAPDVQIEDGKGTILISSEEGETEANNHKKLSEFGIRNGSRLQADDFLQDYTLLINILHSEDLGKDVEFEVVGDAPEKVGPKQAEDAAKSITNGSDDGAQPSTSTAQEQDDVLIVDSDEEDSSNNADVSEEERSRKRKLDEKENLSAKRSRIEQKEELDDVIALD
T1 sequence (Q9UBE0 1-346): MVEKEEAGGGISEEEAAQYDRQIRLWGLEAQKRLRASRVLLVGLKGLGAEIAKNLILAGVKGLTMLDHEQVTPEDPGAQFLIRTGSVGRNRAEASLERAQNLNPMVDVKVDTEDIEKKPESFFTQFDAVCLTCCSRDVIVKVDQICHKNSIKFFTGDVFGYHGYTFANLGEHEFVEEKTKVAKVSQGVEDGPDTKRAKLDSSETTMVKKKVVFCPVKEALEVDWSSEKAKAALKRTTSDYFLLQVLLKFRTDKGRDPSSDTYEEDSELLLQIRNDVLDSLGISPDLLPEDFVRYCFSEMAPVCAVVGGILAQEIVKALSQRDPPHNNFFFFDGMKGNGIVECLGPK
Put plainly: SUMO IF: in vitro inhibitory activity assay against SAE in HCT116 cells (SUMO-2/3 immunofluorescence). It counts as cell-based. The settings on record: 6 h at 37° C. Summed up: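 HCT116 cells were treated with compound for 6 h at 37 °C, then PFA-fixed, Triton-permeabilised and BSA-blocked. They were stained overnight at 4 °C with anti-SUMO-2/3 (18H8) rabbit mAb (1:400), then with FITC anti-rabbit IgG (1:300). Fluorescence versus DMSO gave inhibition rate and IC50.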

Usually IC50 stands for the concentration that gives 50% inhibition. Read a high IC50 as a need for much substance. Turning to `NS(=O)(=O)OC[C@H]1[C@H](F)[C@@H](Nc2ncncc2C(=O)c2cc3c(s2)CSC[C@]32NCCc3ncc(Cl)cc32)C[C@@H]1O` [Compound 614], the IC50 (class symbols) was at most 50 nM.
`NS(=O)(=O)OC[C@H]1[C@H](F)[C@@H](Nc2ncncc2C(=O)c2cc3c(s2)CC2(CC2)CC32NCCc3ccc(Cl)cc32)C[C@@H]1O` (some centres unmarked) [Compound 615] had an IC50 (class symbols) of at most 50 nM.
On to `NS(=O)(=O)OC[C@H]1[C@H](F)[C@@H](Nc2ncncc2C(=O)c2cc3c(s2)CCC[C@@]32NCC3(CC3)c3ccc(Cl)cc32)C[C@@H]1O` [Compound 616], for which the IC50 (class symbols) was above 200 nM.
Take `NS(=O)(=O)OC[C@H]1[C@H](F)[C@@H](Nc2ncncc2C(=O)c2cc3c(s2)CCC[C@]32NCC3(CC3)c3ccc(Cl)cc32)C[C@@H]1O` [Compound 617]: the IC50 (class symbols) was at most 50 nM.
Still for that read-out and setting: the result for `NS(=O)(=O)OC[C@H]1[C@H](F)[C@@H](Nc2ncncc2C(=O)c2cc3c(s2)C(F)=CC32NCCc3ccc(F)cc32)C[C@@H]1O` (some centres unmarked) [Compound 618] reads 50 to 200 nM; that for `NS(=O)(=O)OC[C@H]1[C@H](F)[C@@H](Nc2ncncc2C(=O)c2cc3c(s2)C(F)=C[C@@]32NCCc3ccc(F)cc32)C[C@@H]1O` [Compound 619], above 200 nM; that for `NS(=O)(=O)OC[C@H]1[C@H](F)[C@@H](Nc2ncncc2C(=O)c2cc3c(s2)C(F)=C[C@]32NCCc3ccc(F)cc32)C[C@@H]1O` [Compound 620], 50 to 200 nM.
The compound `CC1=CC2(NCCc3ccc(F)cc32)c2cc(C(=O)c3cncnc3N[C@H]3C[C@H](O)[C@@H](COS(N)(=O)=O)[C@@H]3F)sc21` (some centres unmarked) [Compound 621] returned an IC50 (class symbols) of 50 to 200 nM.
Turning to `CC1=C[C@@]2(NCCc3ccc(F)cc32)c2cc(C(=O)c3cncnc3N[C@H]3C[C@H](O)[C@@H](COS(N)(=O)=O)[C@@H]3F)sc21` [Compound 622], the IC50 (class symbols) is above 200 nM.
Still for that read-out and setting: the result for `CC1=C[C@]2(NCCc3ccc(F)cc32)c2cc(C(=O)c3cncnc3N[C@H]3C[C@H](O)[C@@H](COS(N)(=O)=O)[C@@H]3F)sc21` [Compound 623] reads 50 to 200 nM; that for `NS(=O)(=O)OC[C@H]1[C@H](F)[C@@H](Nc2ncncc2C(=O)c2cc3c(s2)C(F)(F)CC32NCCc3ccc(F)cc32)C[C@@H]1O` (some centres unmarked) [Compound 624], 50 to 200 nM; that for `NS(=O)(=O)OC[C@H]1[C@H](F)[C@@H](Nc2ncncc2C(=O)c2cc3c(s2)C(F)(F)C[C@@]32NCCc3ccc(F)cc32)C[C@@H]1O` [Compound 625], above 200 nM.
With `NS(=O)(=O)OC[C@H]1[C@H](F)[C@@H](Nc2ncncc2C(=O)c2cc3c(s2)C(F)(F)C[C@]32NCCc3ccc(F)cc32)C[C@@H]1O` [Compound 626], the IC50 (class symbols) lay in the range of 50 to 200 nM.
Turning to `NS(=O)(=O)OC[C@H]1[C@H](F)[C@@H](Nc2ncncc2C(=O)c2cc3c(s2)CCCC32NC(=O)Cc3ccc(Cl)cc32)C[C@@H]1O` (some centres unmarked) [Compound 627], the IC50 (class symbols) was above 200 nM.
For the compound `NS(=O)(=O)OC[C@H]1[C@H](F)[C@@H](Nc2ncncc2C(=O)c2cc3c(s2)CCC[C@@]32NC(=O)Cc3ccc(Cl)cc32)C[C@@H]1O` [Compound 628], the IC50 (class symbols) is above 200 nM.
With `NS(=O)(=O)OC[C@H]1[C@H](F)[C@@H](Nc2ncncc2C(=O)c2cc3c(s2)CCC[C@]32NC(=O)Cc3ccc(Cl)cc32)C[C@@H]1O` [Compound 629], the IC50 (class symbols) was above 200 nM.
Regarding `NS(=O)(=O)OC[C@H]1[C@H](F)[C@@H](Nc2ncncc2C(=O)c2cc3c(s2)C(=O)CC32NCCc3ccc(Cl)cc32)C[C@@H]1O` (some centres unmarked) [Compound 630], the IC50 (class symbols) fell in the range of 50 to 200 nM.
Compound `NS(=O)(=O)OC[C@H]1[C@H](F)[C@@H](Nc2ncncc2C(=O)c2cc3c(s2)C(=O)C[C@@]32NCCc3ccc(Cl)cc32)C[C@@H]1O` [Compound 631] registered an IC50 (class symbols) above 200 nM.
Still for that read-out and setting: the result for `NS(=O)(=O)OC[C@H]1[C@H](F)[C@@H](Nc2ncncc2C(=O)c2cc3c(s2)C(=O)C[C@]32NCCc3ccc(Cl)cc32)C[C@@H]1O` [Compound 632] reads 50 to 200 nM; that for `NS(=O)(=O)CC[C@H]1[C@H](F)[C@@H](Nc2ncncc2C(=O)c2cc3c(s2)CCCC32NCCc3ccc(Cl)cc32)C[C@@H]1O` (some centres unmarked) [Compound 636], above 200 nM; that for `NS(=O)(=O)CC[C@H]1[C@H](F)[C@@H](Nc2ncncc2C(=O)c2cc3c(s2)CCC[C@@]32NCCc3ccc(Cl)cc32)C[C@@H]1O` [Compound 637], above 200 nM.
On the same count and under the same terms, for `NS(=O)(=O)CC[C@H]1[C@H](F)[C@@H](Nc2ncncc2C(=O)c2cc3c(s2)CCC[C@]32NCCc3ccc(Cl)cc32)C[C@@H]1O` [Compound 638] the value was 50 to 200 nM.
In turn, `NS(=O)(=O)CC[C@H]1[C@H](F)[C@@H](Nc2ncncc2C(=O)c2cc3c(s2)C=C[C@@]32NCCc3ccc(Cl)cc32)C[C@@H]1O` [Compound 639] displayed an IC50 (class symbols) above 200 nM.
For `NS(=O)(=O)CC[C@H]1[C@H](F)[C@@H](Nc2ncncc2C(=O)c2cc3c(s2)C=C[C@]32NCCc3ccc(Cl)cc32)C[C@@H]1O` [Compound 640], where the note is “class symbols”, the IC50 fell in the range of 50 to 200 nM.
With `NS(=O)(=O)CC[C@H]1[C@H](F)[C@@H](Nc2ncncc2C(=O)c2cc3c(s2)CC[C@@]32NCCc3ccc(Cl)cc32)C[C@@H]1O` [Compound 641], the IC50 (class symbols) was above 200 nM.
The compound `NS(=O)(=O)CC[C@H]1[C@H](F)[C@@H](Nc2ncncc2C(=O)c2cc3c(s2)CC[C@]32NCCc3ccc(Cl)cc32)C[C@@H]1O` [Compound 642] showed an IC50 (class symbols) of 50 to 200 nM.
For `COc1ccc2c(c1)[C@]1(CCCc3sc(C(=O)c4cncnc4N[C@H]4C[C@H](O)[C@@H](COS(N)(=O)=O)[C@@H]4F)cc31)NCC2` [Compound 643], for the setting “class symbols”, the IC50 is above 200 nM.
In the case of `COc1ccc2c(c1)[C@@]1(CCCc3sc(C(=O)c4cncnc4N[C@H]4C[C@H](O)[C@@H](COS(N)(=O)=O)[C@@H]4F)cc31)NCC2` [Compound 644], under “class symbols”, the 50% inhibitory concentration (IC50) is above 200 nM.
`CCN1Cc2sc(C(=O)c3cncnc3N[C@H]3C[C@H](O)[C@@H](COS(N)(=O)=O)[C@@H]3F)cc2C2(C1)NCCc1ccc(Cl)cc12` (some centres unmarked) [Compound 645] gave an IC50 (class symbols) of at most 50 nM.
With `CCN1Cc2sc(C(=O)c3cncnc3N[C@H]3C[C@H](O)[C@@H](COS(N)(=O)=O)[C@@H]3F)cc2[C@@]2(C1)NCCc1ccc(Cl)cc12` [Compound 646], the IC50 (numeric values) was above 1000 nM.
Consider `CCN1Cc2sc(C(=O)c3cncnc3N[C@H]3C[C@H](O)[C@@H](COS(N)(=O)=O)[C@@H]3F)cc2[C@]2(C1)NCCc1ccc(Cl)cc12` [Compound 647], for which the half-maximal inhibitory concentration (IC50) (numeric values) was 19.9 nM.
In the case of `CC(C)N1Cc2sc(C(=O)c3cncnc3N[C@H]3C[C@H](O)[C@@H](COS(N)(=O)=O)[C@@H]3F)cc2C2(C1)NCCc1ccc(Cl)cc12` (some centres unmarked) [Compound 648], the IC50 (class symbols) is at most 50 nM.
`CC(C)N1Cc2sc(C(=O)c3cncnc3N[C@H]3C[C@H](O)[C@@H](COS(N)(=O)=O)[C@@H]3F)cc2[C@@]2(C1)NCCc1ccc(Cl)cc12` [Compound 649] showed an IC50 (numeric values) above 1000 nM.
The same measure, in the same setting: for `CC(C)N1Cc2sc(C(=O)c3cncnc3N[C@H]3C[C@H](O)[C@@H](COS(N)(=O)=O)[C@@H]3F)cc2[C@]2(C1)NCCc1ccc(Cl)cc12` [Compound 650] the value was 21.7 nM.
Regarding `NS(=O)(=O)OC[C@H]1[C@H](F)[C@@H](Nc2ncncc2C(=O)c2cc3c(s2)CN(CC(F)(F)F)CC32NCCc3ccc(Cl)cc32)C[C@@H]1O` (some centres unmarked) [Compound 651], where the note is “class symbols”, the IC50 was at most 50 nM.
In turn, `NS(=O)(=O)OC[C@H]1[C@H](F)[C@@H](Nc2ncncc2C(=O)c2cc3c(s2)CN(CC(F)(F)F)C[C@@]32NCCc3ccc(Cl)cc32)C[C@@H]1O` [Compound 652] came in with a 50% inhibitory concentration (IC50) (numeric values) above 1000 nM.
With `NS(=O)(=O)OC[C@H]1[C@H](F)[C@@H](Nc2ncncc2C(=O)c2cc3c(s2)CN(CC(F)(F)F)C[C@]32NCCc3ccc(Cl)cc32)C[C@@H]1O` [Compound 653], where the note is “numeric values”, the IC50 was determined as 25.9 nM.
For the compound `C=CCN1Cc2sc(C(=O)c3cncnc3N[C@H]3C[C@H](O)[C@@H](COS(N)(=O)=O)[C@@H]3F)cc2C2(C1)NCCc1ccc(Cl)cc12` (some centres unmarked) [Compound 654], the IC50 (class symbols) was at most 50 nM.
In the case of `C=CCN1Cc2sc(C(=O)c3cncnc3N[C@H]3C[C@H](O)[C@@H](COS(N)(=O)=O)[C@@H]3F)cc2[C@@]2(C1)NCCc1ccc(Cl)cc12` [Compound 655], the IC50 (numeric values) was above 1000 nM.
The same measure, in the same setting: for `C=CCN1Cc2sc(C(=O)c3cncnc3N[C@H]3C[C@H](O)[C@@H](COS(N)(=O)=O)[C@@H]3F)cc2[C@]2(C1)NCCc1ccc(Cl)cc12` [Compound 656] the value was 25.1 nM.
In turn, `C#CCN1Cc2sc(C(=O)c3cncnc3N[C@H]3C[C@H](O)[C@@H](COS(N)(=O)=O)[C@@H]3F)cc2C2(C1)NCCc1ccc(Cl)cc12` (some centres unmarked) [Compound 657] yielded an IC50 (class symbols) of at most 50 nM.
